18 molecules from PubChem BioAssay (NCI) can be followed below.

What all share (assay): NCI tumour cell line growth inhibition, 48 h
Experiment [1] deals with DMS 114 small cell lung.
The test system of experiment [2] is RXF-631 renal.
Experiment [3] concerns XF 498 CNS.
Experiment [4] has as its system SNB-78 CNS.
Experiment [5] relates to HOP-18 NSCLC.
Experiment [6] has as its system DMS 273 small cell lung.
The test system of experiment [7] is P388/ADR leukemia.
The test system of experiment [8] is MDA-N.
Experiment [9] has as its system MDA-MB-231 breast.
The test system of experiment [10] is T-47D breast.
Experiment [11] deals with P388 leukemia.

Several values for one entry are separate records, joined by “and”; a condition that tells them apart may be missing. Equal values may be shown once.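 Growth conditions: 96-well plates. Treatment: test compound, 48 hours, 5 concentrations. Analysis: linear interpolation between bracketing concentrations; unreached endpoints set to highest concentration. GI50 = concentration required for 50% inhibition of growth. TGI denotes the concentration required for complete inhibition of growth.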

Regarding `O=C1OC(c2ccccc2)=N/C1=C/C=C/c1ccco1`, the TGI in experiment [1], in [2], in experiment [3] and in experiment [4] was over 100 µM each time.

On to `O=[N+]([O-])c1nccn1CC(O)c1ccc(F)cc1` (stereo not given), for which the TGI in experiment [1], in experiment [5], in [2], in [3] and in experiment [6] was over 100 µM throughout.

On to `COC(=O)c1cc2c3ccccc3n(C(C)=O)c2cn1`, for which the TGI in experiment [1] was over 100 µM; in experiment [5] it was over 100 µM; in [2] it was over 100 µM; in [3], 89.9 µM; in experiment [4] it was over 100 µM; in experiment [6] it was over 100 µM.

On to `COC(=O)C(C(=O)C(=O)Nc1cccc(OC)c1)c1cnc2ccccc2n1` (stereo not given), for which the TGI in experiment [1], in [5], in experiment [2], in experiment [3], in experiment [4] and in experiment [6] was over 100 µM throughout.

As to `Cc1ccccc1N1C(=O)/C(=C/c2ccc(N(CCC#N)CCC#N)cc2)N=C1c1cc([N+](=O)[O-])ccc1Cl`, the TGI in experiment [1], in [5], in experiment [2], in experiment [4] and in [6] was over 100 µM throughout.

Take `O=c1n(CC2CO2)c(=O)n(CC2CO2)c(=O)n1CC1CO1` (stereo not given): the TGI in experiment [7] is 275 µM; in experiment [1] it was 70.9 µM; in experiment [5], 202 µM; in experiment [8], 72 µM and 82.6 µM; in experiment [9], 84.8 µM and > 100 µM; in experiment [10] it was 70.3 µM and > 100 µM. Also, the figures for the TGI in experiment [4], in experiment [6] and in [11] were 199 µM, 51.4 µM and 122 µM, respectively. Also, the GI50 is 26.5 µM in experiment [8]; 35.1 µM and 52.4 µM in experiment [9]; 7.66 µM and 10 µM in experiment [10].

`O=S(=O)([O-])c1ccc2c(c1)-c1nc-2nc2[n-]c(nc3nc(nc4[n-]c(n1)c1ccc(S(=O)(=O)[O-])cc41)-c1cc(S(=O)(=O)[O-])ccc1-3)c1ccc(S(=O)(=O)[O-])cc21.[Cu+2].[Na+]`: the GI50 was 31.2 µM in experiment [1]; over 100 µM in experiment [5]; over 100 µM in experiment [8]; over 100 µM in experiment [9]; over 86.8 µM in experiment [2]; 75.6 µM in [10]. Besides, the GI50 in [3] is 68.3 µM; in experiment [4], over 100 µM; in experiment [6] it was 6.07 µM. The TGI in experiment [1], in [5], in experiment [8], in [9], in experiment [2] and in experiment [10] was over 100 µM each time. The TGI in experiment [3], in [4] and in [6] was over 100 µM throughout.

In the case of `CC1=Nc2ccccc2C1C(Cc1ccccc1N)c1c(C)[nH]c2ccccc12` (stereo not given), the TGI amounted to 33.5 µM in [1], 24.8 µM in [5], 44.4 µM in experiment [2] and 32.5 µM in [3].

Take `O=c1nc2occc2cn1C1CC(O)C(CO)O1` (stereo not given): the TGI in experiment [1], in experiment [5], in experiment [2], in experiment [3], in experiment [4] and in experiment [6] was over 100 µM in each case.

On to `COC(=O)C12C3C4C1C1C2C3C41C(=O)OC(C)(C)C` (stereo not given), for which the TGI was over 67.4 µM in experiment [1]; over 100 µM in experiment [5]; over 100 µM in experiment [2]; over 100 µM in experiment [3]; over 100 µM in experiment [4]; over 60.5 µM in [6].

Turning to `CNC(=S)NC1CCCCC1NC(=S)NC` (stereo not given), the TGI in [1], in [5], in [2], in experiment [3], in [4] and in experiment [6] was over 100 µM in each case.

`CC(C)(C)[SiH]12(OC(C(F)(F)F)(C(F)(F)F)c3ccccc31)OC(C(F)(F)F)(C(F)(F)F)c1ccccc12`: the TGI in experiment [1] was 22.3 µM; in experiment [5] it was 9.83 µM; in experiment [2] it was 10.7 µM; in experiment [3] it was 24.3 µM; in experiment [4], 25.3 µM; in [6], 24.3 µM.

As to `CC1OC(n2cc(F)c(=O)[nH]c2=O)C=CC1O` (stereo not given), the TGI in [1], in experiment [5], in experiment [2], in experiment [3], in experiment [4] and in experiment [6] was over 100 µM in each case.

With `CCN(CC)CCOc1ccc(/C=C(\C#N)c2ccc(OCCN(CC)CC)cc2)cc1`, the TGI in experiment [1] was 23.2 µM; in [5], 57.3 µM; in [3] it was 29.3 µM; in experiment [4] it was over 87.5 µM; in experiment [6], 26.5 µM.

On to `Cc1cc(Br)cc(C)c1NC(=O)C(=O)C(C(=O)c1ccc2ccccc2c1)C1OC(=O)c2ccccc21` (stereo not given), for which the TGI in [1] was 41.8 µM; in [5] it was 41.3 µM; in experiment [2] it was over 100 µM; in experiment [3] it was 18 µM; in experiment [6], 86 µM.

Regarding `O=S(O)CCCCSSCC(O)C(O)CSSCCCCS(=O)O` (stereo not given), the TGI in experiment [1] was 34 µM and 56.6 µM; in [5] it was over 100 µM; in experiment [2] it was over 100 µM; in experiment [3], 35.9 µM and 26 µM; in [4], 97.7 µM and > 100 µM; in experiment [6], over 100 µM.

As for `O=C1c2ccccc2C2(Br)C(=O)c3ccccc3C12` (stereo not given), the TGI in experiment [1] is over 100 µM; in [5] it was over 100 µM; in [2] it was 28.1 µM; in [6], 42.5 µM.

As for `O=C1CN=C(C[N+](=O)[O-])c2ccccc21`, the TGI in experiment [1], in [5], in [2], in experiment [4] and in experiment [6] was over 100 µM each time.
